Assay results as given in patent US20060089391A1, “Treatment of cancer in pediatric patients” (priority 2004, published 2006).
Read-outs that look alike come from different tables or passages of the source.

How the values were obtained:
[1] = tested on: neuroblastoma; test: Clinical response in pediatric patients with neuroblastoma; type: in vivo, human
Excerpt: Patients (n=19) with neuroblastoma have experienced time-to-disease progresson with a median progression free survival (FPS) of 20 weeks.

[2] = Pharmacokinetic profiles of pediatric patients after oral dosing; type: in vivo, human; details: for area under the plasma concentration time curve / time of maximum plasma concentration: immediate release composition
[3] = target: biotinylated bovine brain tubulin; details: competition of [3H]colchicine
[4] = one 75 mg per mm^2 per day oral dose for 21 days
[5] = one 100 mg per mm^2 per day oral dose for 21 days
[6] = one 130 mg per mm^2 per day oral dose for 21 days
[7] = one 165 mg per mm^2 per day oral dose for 21 days
[8] = one 200 mg per mm^2 per day oral dose for 21 days
[9] = one 250 mg per mm^2 per day oral dose for 21 days

In the case of `COc1ccc(S(=O)(=O)Nc2cccnc2Nc2ccc(O)cc2)cc1` [ABT-751, N-(2-((4-hydroxyphenyl)amino)pyrid-3-yl)-4-methoxybenzenesulfonamide], the “clinical outcome of a single patient” value ([1]; patient with neuroblastoma, 100 mg/mm^2/d on the daily x7 schedule) is reported as “disease stabilization after 44 cycles”, the “median progression free survival (FPS)” value ([1]; patients (n=19) with neuroblastoma) is reported as 20 weeks and the Tmax ([2]; 250 mg/mm^2/d QD oral) is reported as 2.0 h. It also gave a Tmax ([2]; human, in vivo, 200 QD oral, mean±SD, read-out: Tmax) of 3 ± 1.7 h, a Cmax ([2]; human, plasma, 75 QD oral, mean±SD) of 8000 ± 1700 ng/mL and a Tmax ([2]; human, plasma, 75 QD oral, mean±SD, read-out: Tmax) of 2.7 ± 0.6 h. For the same compound, the Cmax ([2]; human, plasma, 100 QD oral, mean±SD) was 10600 ± 3000 ng/mL, the Tmax ([2]; human, plasma, 100 QD oral, mean±SD, read-out: Tmax) was 1.9 ± 1 h and the Cmax ([2]; human, plasma, 130 QD oral, mean±SD) was 10800 ± 2900 ng/mL. For the same compound, the Tmax ([2]; human, plasma, 130 QD oral, mean±SD, read-out: Tmax) was 2.2 ± 0.8 h, the Cmax ([2]; human, plasma, 165 QD oral, mean±SD) was 13500 ± 4600 ng/mL and the Tmax ([2]; human, plasma, 165 QD oral, mean±SD, read-out: Tmax) was 3 ± 1.7 h. The Cmax ([2]; human, plasma, 200 QD oral, mean±SD) was 16900 ± 8100 ng/mL, the Cmax ([2]; human, plasma, 250 QD oral, mean±SD) was 23300 ± 6500 ng/mL and the “area under the plasma concentration time curve” value (from here on “area”) [2, 4] was 52 ± 21 µg·h/mL. The time of maximum plasma concentration [2, 4] was 2.7 ± 0.6 h, the “area” value [2, 5] was 60 ± 19 µg·h/mL and the time of maximum plasma concentration [2, 5] was 1.9 ± 1 h. For the same compound, the “area” value [2, 6] was 62 ± 19 µg·h/mL, the time of maximum plasma concentration [2, 6] was 2.2 ± 0.8 h and the “area” value [2, 7] was 90 ± 27 µg·h/mL. For the same compound, the time of maximum plasma concentration [2, 7] was 3 ± 1.7 h, the “area” value [2, 8] was 91 ± 24 µg·h/mL and the time of maximum plasma concentration [2, 8] was 3 ± 1.7 h. For the same compound, the “area” value [2, 9] was 129 ± 23 µg·h/mL, the time of maximum plasma concentration [2, 9] was 2 h and the Ki [3] was 2600 nM.

For `CC[C@]1(O)C[C@@H]2CN(CCc3c([nH]c4ccccc34)[C@@](C(=O)OC)(c3cc4c(cc3OC)N(C)[C@H]3[C@@](O)(C(=O)OC)[C@H](OC(C)=O)[C@]5(CC)C=CCN6CC[C@]43[C@@H]65)C2)C1` [vinblastine], the Ki [3] was > 100000 nM.
